Target: T1, recombinant human NK3 receptor (Homo sapiens, UniProt P29371)
T1 construct: expressed in transfected cells; host or cells: HEK293 cells (transient expression), membranes
T1 sequence (P29371 1-465): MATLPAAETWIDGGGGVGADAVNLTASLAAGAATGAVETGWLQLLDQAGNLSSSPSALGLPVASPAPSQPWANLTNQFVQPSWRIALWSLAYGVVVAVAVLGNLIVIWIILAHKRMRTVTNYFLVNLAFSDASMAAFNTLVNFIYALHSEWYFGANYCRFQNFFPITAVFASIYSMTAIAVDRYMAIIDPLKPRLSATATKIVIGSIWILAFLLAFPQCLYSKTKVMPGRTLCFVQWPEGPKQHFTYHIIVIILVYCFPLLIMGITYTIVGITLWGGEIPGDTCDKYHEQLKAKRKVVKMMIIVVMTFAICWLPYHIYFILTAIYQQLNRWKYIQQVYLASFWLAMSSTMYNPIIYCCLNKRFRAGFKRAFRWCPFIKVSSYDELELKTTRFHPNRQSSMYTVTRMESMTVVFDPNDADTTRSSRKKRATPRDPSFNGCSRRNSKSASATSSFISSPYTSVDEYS
Assay: [3H]SR142801 competition binding assay
Settings: membranes from HEK293 cells transiently expressing recombinant human NK3 receptor; [3H]SR142801 radioligand; 75 min at RT; Ki by Cheng-Prussoff; read-out: Data Ki (hNK-3 receptor affinity)
Protocol: [^3H]SR142801 Competition Binding Assay
hNK3 receptor binding experiment were performed using [^3H]SR142801 (Catalog No. TRK1035, specific activity: 74.0 Ci/mmol, Amersham, GE Healthcare UK limited, Buckinghamshire, UK) and membrane isolated from HEK293 cells transiently expressing recombinant human NK3 receptor. After thawing, the membrane homogenates were centrifuged at 48,000×g for 10 min at 4° C., the pellets were resuspended in the 50 mM Tris-HCl, 4 mM MnCl2, 1 μM phosphoramidon, 0.1% BSA binding buffer at pH 7.4 to a final assay concentration of 5 μg protein/well. […] At the end of the incubation, membranes were filtered onto unitfilter (96-well white microplate with bonded GF/C filter preincubated 1 h in 0.3% PEI+0.3% BSA, Packard BioScience, Meriden, Conn.) with a Filtermate 196 harvester (Packard BioScience) and washed 4 times with ice-cold 50 mM Tris-HCl, pH 7.4 buffer. Nonspecific binding was measured in the presence of 10 μM SB222200 for both radioligands. The radioactivity on the filter was counted (5 min) on a Packard Top-count microplate scintillation counter with quenching correction after addition of 45 μl of microscint 40 (Can berra Packard S. A., Zurich, Switzerland) and shaking for 1 h. Inhibition curves were fitted according to the Hill equation: y=100/(1+(x/IC50)^nH), where nH=slope factor using Excel-fit 4 software (Microsoft). IC50 values were derived from the inhibition curve and the affinity constant (Ki) values were calculated using the Cheng-Prussoff equation Ki═IC50/(1+[L]/KD) where [L] is the concentration of radioligand and KD is its dissociation constant at the receptor, derived from the saturation isotherm. All experiments were performed in duplicate and the mean±standard error (SEM) of the individual Ki values was calculated.

Row | SMILES | Ki [nM]
1 | C[C@H](NC(=O)C1(c2ccccc2)CCN(C(=O)c2cnc(-c3ccccc3)nc2)CC1)c1ccccc1 [Example 52, 4-Phenyl-1-(2-phenyl-pyrimidine-5-carbonyl)-piperidine-4-carboxylic acid ((S)-1-phenyl-ethyl)-amide] | 24.1
2 | Cc1ccccc1N1CCN(C(=O)N2CCC(C(=O)N[C@@H](C)c3ccccc3)(c3ccccc3)CC2)CC1 [Example 229, 4-Phenyl-1-(4-o-tolyl-piperazine-1-carbonyl)-piperidine-4-carboxylic acid ((S)-1-phenyl-ethyl)-amide] | 34.9
3 | C[C@H](NC(=O)C1(c2ccccc2)CCN(C(=O)N2CCN(c3ccc(S(C)(=O)=O)cc3F)CC2)CC1)c1ccccc1 [Example 211, 1-[4-(2-Fluoro-4-methanesulfonyl-phenyl)-piperazine-1-carbonyl]-4-phenyl-piperidine-4-carboxylic acid ((S)-1-phenyl-ethyl)-amide] | 29.4
4 | C[C@H](NC(=O)C1(c2ccccc2)CCN(C(=O)c2cc(-c3ccc(F)cc3)no2)CC1)c1ccccc1 [Example 62, 1-[3-(4-Fluoro-phenyl)-isoxazole-5-carbonyl]-4-phenyl-piperidine-4-carboxylic acid ((S)-1-phenyl-ethyl)-amide] | 63.5
5 | C[C@H](NC(=O)C1(c2ccccc2)CCN(C(=O)N2CCN(C3CCCCC3)CC2)CC1)c1ccccc1 [Example 230, 1-(4-Cyclohexyl-piperazine-1-carbonyl)-4-phenyl-piperidine-4-carboxylic acid ((S)-1-phenyl-ethyl)-amide] | 22.1
6 | N#Cc1ccc(N2CCC(C(=O)N3CCC(C(=O)N[C@H](c4cccc(F)c4)C4CC4)(c4ccc(F)cc4)CC3)CC2)nc1 [Example 195, 1-(5′-Cyano-3,4,5,6-tetrahydro-2H-[1,2′]bipyridinyl-4-carbonyl)-4-(4-fluoro-phenyl)-piperidine-4-carboxylic acid [(S)-cyclopropyl-(3-fluoro-phenyl)-methyl]-amide] | 15
7 | Cc1noc(C2CCN(C(=O)N3CCC(C(=O)N[C@@H](C)c4ccccc4)(c4ccccc4)CC3)CC2)n1 [Example 214, 1-[4-(3-Methyl-[1,2,4]oxadiazol-5-yl)-piperidine-1-carbonyl]-4-phenyl-piperidine-4-carboxylic acid ((S)-1-phenyl-ethyl)-amide] | 9
8 | C[C@H](NC(=O)C1(c2ccccc2)CCN(C(=O)c2ccc(-c3ccccc3)nc2)CC1)c1ccccc1 [Example 56] | 20.6
9 | C[C@H](NC(=O)C1(c2ccc(F)cc2)CCN(C(=O)c2ccc(N3CCCCC3=O)cc2)CC1)c1cccc(F)c1 [Example 173, 4-(4-Fluoro-phenyl)-1-[4-(2-oxo-piperidin-1-yl)-benzoyl]-piperidine-4-carboxylic acid [(S)-1-(3-fluoro-phenyl)-ethyl]-amide] | 43
10 | C[C@H](NC(=O)C1(c2ccc(F)cc2)CCN(C(=O)c2ccc(N3CCS(=O)(=O)CC3)cc2)CC1)c1ccc(F)cc1 [Example 1, 1-[4-(1,1-Dioxo-1λ^6-thiomorpholin-4-yl)-benzoyl]-4-(4-fluoro-phenyl)-piperidine-4-carboxylic acid [(S)-1-(4-fluoro-phenyl)-ethyl]-amide] | 29.3
11 | CC(C)CC1(C(=O)N[C@@H](C)c2ccc(F)cc2)CCN(C(=O)c2ccc(-c3ccc(F)cc3)cc2)CC1 [Example 122, 1-(4′-Fluoro-biphenyl-4-carbonyl)-4-isobutyl-piperidine-4-carboxylic acid [(S)-1-(4-fluoro-phenyl)-ethyl]-amide] | 25.7
12 | Cc1ccc(NNC(=O)C2(c3ccc(F)cc3)CCN(C(=O)c3ccc(-c4ccc(F)cc4)cc3)CC2)cc1 [Example 187, 1-(4′-Fluoro-biphenyl-4-carbonyl)-4-(4-fluoro-phenyl)-piperidine-4-carboxylic acid N′-p-tolyl-hydrazide] | 76.7
13 | C[C@H](NC(=O)C1(c2ccc(F)cc2)CCN(C(=O)c2ccc(-c3ccc(F)cc3)cc2)CC1)C1CCCCC1 [Example 92, 1-(4′-Fluoro-biphenyl-4-carbonyl)-4-(4-fluoro-phenyl)-piperidine-4-carboxylic acid ((S)-1-cyclohexyl-ethyl)-amide] | 5.1
14 | C[C@H](NC(=O)C1(c2ccccc2)CCN(C(=O)c2ccc(N3CCCCC3)cc2)CC1)c1ccccc1 [Example 11, 4-Phenyl-1-(4-piperidin-1-yl-benzoyl)-piperidine-4-carboxylic acid ((S)-1-phenyl-ethyl)-amide] | 44
15 | CC[C@H](NC(=O)C1(c2ccccc2)CCN(C(=O)c2ccc(N3CCS(=O)(=O)CC3)cc2)CC1)c1ccccc1 [Example 84, 1-[4-(1,1-Dioxo-1λ6-thiomor-pholin-4-yl)-benzoyl]-4-phenyl-piperidine-4-carboxylic acid ((S)-1-phenyl-propyl)-amide] | 2.8
16 | Cc1noc(-c2ccc(C(=O)N3CCC(C(=O)NC(C)c4ccc(F)c(C(F)(F)F)c4)(c4ccc(F)cc4)CC3)cc2)n1 (centres unmarked) [Example 162, 4-(4-Fluoro-phenyl)-1-[4-(3-methyl-[1,2,4]oxadiazol-5-yl)-benzoyl]-piperidine-4-carboxylic acid [1-(4-fluoro-3-trifluoromethyl-phenyl)-ethyl]-amide] | 75
17 | Cc1ccc(-c2nc(C(=O)N3CCC(C(=O)N[C@@H](C)c4ccccc4)(c4ccccc4)CC3)cs2)cc1 [Example 21, 4-Phenyl-1 - (2-p-tolyl-thiazole-4-carbonyl)-piperidine-4-carboxylic acid ((S)-1-phenyl-ethyl)-amide] | 99.8
18 | C[C@H](NC(=O)C1(c2ccccc2)CCN(C(=O)N2CCC(N3CCSCC3)CC2)CC1)c1ccccc1 [Example 218, 4-Phenyl-1-(4-thiomorpholin-4-yl-piperidine-1-carbonyl)-piperidine-4-carboxylic acid ((S)-1-phenyl-ethyl)-amide] | 5.2
19 | C[C@H](NC(=O)C1(c2ccccc2)CCN(C(=O)c2ccc(N3CCS(=O)(=O)CC3)cc2)CC1)c1ccc(F)cc1 [Example 78, 1-[4-(1,1-Dioxo-1λ6-thiomor-pholin-4-yl)-benzoyl]-4-phenyl-piperidine-4-carboxylic acid [(S)-1-(4-fluoro-phenyl)-ethyl]-amide] | 11.8
20 | C[C@H](NC(=O)C1(c2ccccc2)CCN(C(=O)c2ccc(N3CCOCC3)cc2)CC1)c1ccccc1 [Example 8, 1-(4-Morpholin-4-yl-benzoyl)-4-phenyl-piperidine-4-carboxylic acid ((S)-l-phenyl-ethyl)-amide] | 84.4
21 | Cc1noc(-c2ccc(C(=O)N3CCC(C(=O)N[C@@H](C)C4CCCCC4)(c4ccccc4)CC3)cc2)n1 [Example 74] | 1
22 | C[C@H](NC(=O)C1(c2ccccc2)CCN(C(=O)N2CCN(c3cnccn3)CC2)CC1)c1ccccc1 [Example 209, 4-Phenyl-1-(2,3,5,6-tetrahydro-[1,2′]bipyrazinyl-4-carbonyl)-piperidine-4-carboxylic acid ((S)-1-phenyl-ethyl)-amide] | 58.4
23 | C[C@H](NC(=O)C1(c2ccccc2)CCN(C(=O)c2ccc(-n3cncn3)nc2)CC1)c1ccccc1 [Example 39, 4-Phenyl-1-(6-[l,2,4]triazol-1-yl-pyridine-3-carbonyl)-piperidine-4-carboxylic acid ((S)-1-phenyl-ethyl)-amide] | 80.8
24 | C[C@H](NC(=O)C1(c2ccccc2)CCN(C(=O)c2ccc(-c3ccc(F)cc3)cc2)CC1)c1ccc(Cl)cc1 [Example 102, 1-(4′-Fluoro-biphenyl-4-carbonyl)-4-phenyl-piperidine-4-carboxylic acid [(S)-1-(4-chloro-phenyl)-ethyl]-amide] | 17.2
25 | C[C@H](NC(=O)C1(c2ccccc2)CCN(C(=O)N2CCN(c3ccc(F)cc3)CC2)CC1)c1ccccc1 [Example 213, 1-[4-(4-Fluoro-phenyl)-piperazine-1-carbonyl]-4-phenyl-piperidine-4-carboxylic acid ((S)-1-phenyl-ethyl)-amide] | 8.8
26 | C[C@H](NC(=O)C1(c2ccccc2)CCN(C(=O)N2CCN(c3cccnc3)CC2)CC1)c1ccccc1 [Example 224, 4-Phenyl-1-(4-pyridin-3-yl-piperazine-1-carbonyl)-piperidine-4-carboxylic acid ((S)-1-phenyl-ethyl)-amide] | 63.8

Source: US8324250B2 (Hoffmann-La Roche Inc., priority 2009, dated 2012)
